Measured values taken from ChEMBL document CHEMBL5154672, “Design and synthesis of HDAC inhibitors to enhance the therapeutic effect of diffuse large B-cell lymphoma by improving metabolic stability and pharmacokinetic characteristics” (Eur J Med Chem, 2022).

What was measured:
Histone deacetylase 1 = Histone deacetylase 1 (Homo sapiens, UniProt Q13547); assay: Inhibition of HDAC1 (unknown origin) using RHKK(Ac)AMC fluorogenic peptide as substrate preincubated for 10 mins followed by substrate addition for 1 hr in presence of ATP by fluoroscence based assay
[1] = Metabolic stability in dog liver microsomes assessed as intrinsic clearance measured for 75 to 130 mins by LC-MS/MS analysis; type: ADME, Canis lupus familiaris, Microsome; conditions: time 75-130 min, read-out: CLH
[2] = AUC (0 to t) in CB.17 SCID mouse xenografted with human TMD8 cells at 50 mg/kg, po measured upto 24 hrs by LC-MS/MS analysis; type: ADME, organism-based; design: time < 24 hrs, dose 50 mg/kg, route po; conditions: in vivo
[3] = Metabolic stability in human liver microsomes assessed as intrinsic clearance measured for 75 to 130 mins by LC-MS/MS analysis; type: ADME, Microsome; conditions: liver microsomes, time 75-130 min, read-out: CLH
MDA-MB-231 [4] = assay: Antiproliferative activity against human MDA-MB-231 cells incubated for 72 hrs by luminescence assay; type: functional, cell-based; conditions: MDA-MB-231, 72 h
TMD8 [5] = assay: Antiproliferative activity against human TMD8 cells assessed as remaining cell activity at 2 uM incubated for 72 hrs by luminescence assay relative to control; type: functional
MDA-MB-231 [6] = assay: Antiproliferative activity against human MDA-MB-231 cells assessed as remaining cell activity at 2 uM incubated for 72 hrs by luminescence assay relative to control; type: functional
A549 = assay: Antiproliferative activity against human A549 cells incubated for 72 hrs by luminescence assay; type: functional, cell-based; conditions: A549, 72 h
SK-OV-3 = assay: Antiproliferative activity against human SK-OV-3 cells incubated for 72 hrs by luminescence assay; type: functional, cell-based; conditions: SK-OV-3, 72 h
HT-29 = assay: Antiproliferative activity against human HT-29 cells incubated for 72 hrs by luminescence assay; type: functional, cell-based; conditions: HT-29, 72 h
COLO-678 = assay: Antiproliferative activity against human COLO-678 cells incubated for 72 hrs by luminescence assay; type: functional, cell-based; conditions: COLO-678, 72 h
DOHH-2 = assay: Antiproliferative activity against human DOHH-2 cells incubated for 72 hrs by luminescence assay; type: functional, cell-based; conditions: DOHH-2, 72 h
SU-DHL-2 = assay: Antiproliferative activity against human SUDHL2 cells incubated for 72 hrs by luminescence assay; type: functional, cell-based; conditions: SU-DHL-2, 72 h
Rec1 = assay: Antiproliferative activity against human REC1 cells incubated for 72 hrs by luminescence assay; type: functional, cell-based; conditions: Rec1, 72 h
[7] = Metabolic stability in monkey liver microsomes assessed as half life measured for 75 to 130 mins by LC-MS/MS analysis; type: ADME, Macaca fascicularis, Microsome; conditions: cynomolgus monkey, time 75-130 min
[8] = Metabolic stability in monkey liver microsomes assessed as intrinsic clearance measured for 75 to 130 mins by LC-MS/MS analysis; type: ADME, Macaca fascicularis, Microsome; conditions: cynomolgus monkey, time 75-130 min, read-out: CLH
[9] = Metabolic stability in rat liver microsomes assessed as intrinsic clearance measured for 75 to 130 mins by LC-MS/MS analysis; type: ADME, Microsome; conditions: time 75-130 min, read-out: CLH
Histone deacetylase 2 = Histone deacetylase 2 (Homo sapiens, UniProt Q92769); assay: Inhibition of HDAC2 (unknown origin) using RHKK(Ac)AMC fluorogenic peptide as substrate preincubated for 10 mins followed by substrate addition for 1 hr in presence of ATP by fluoroscence based assay
Histone deacetylase 8 = Histone deacetylase 8 (Homo sapiens, UniProt Q9BY41); assay: Inhibition of HDAC8 (unknown origin) using RHK(Ac)K(Ac)AMC fluorogenic peptide as substrate preincubated for 10 mins followed by substrate addition for 2 hr in presence of ATP by fluoroscence based assay
[10] = Half life in ICR mouse at 25 mg/kg, po measured upto 24 hrs by LC-MS/MS analysis; type: ADME, organism-based; conditions: in vivo
[11] = AUC (0 to infinity) in ICR mouse at 2 mg/kg, iv measured upto 24 hrs by LC-MS/MS analysis; type: ADME, organism-based; design: time < 24 hrs, dose 2 mg/kg, route iv; conditions: in vivo
[12] = AUC (0 to infinity) in ICR mouse at 25 mg/kg, po measured upto 24 hrs by LC-MS/MS analysis; type: ADME, organism-based; design: time < 24 hrs, dose 25 mg/kg, route po; conditions: in vivo
[13] = MRT in ICR mouse at 25 mg/kg, po measured upto 24 hrs by LC-MS/MS analysis; type: ADME, organism-based; conditions: in vivo
[14] = Oral bioavailability in ICR mouse at 25 mg/kg measured upto 24 hrs by LC-MS/MS analysis; type: ADME, organism-based; conditions: in vivo
[15] = Cmax in CB.17 SCID mouse xenografted with human TMD8 cells at 25 mg/kg, po measured upto 24 hrs by LC-MS/MS analysis; type: ADME, organism-based; design: dose 25 mg/kg, time < 24 hrs, route po; conditions: in vivo
[16] = Cmax in CB.17 SCID mouse xenografted with human TMD8 cells at 50 mg/kg, po measured upto 24 hrs by LC-MS/MS analysis; type: ADME, organism-based; design: dose 50 mg/kg, time < 24 hrs, route po; conditions: in vivo
[17] = Cmax in CB.17 SCID mouse xenografted with human TMD8 cells at 100 mg/kg, po measured upto 24 hrs by LC-MS/MS analysis; type: ADME, organism-based; design: time < 24 hrs, dose 100 mg/kg, route po; conditions: in vivo
[18] = AUC (0 to t) in CB.17 SCID mouse xenografted with human TMD8 cells at 100 mg/kg, po measured upto 24 hrs by LC-MS/MS analysis; type: ADME, organism-based; design: dose 100 mg/kg, time < 24 hrs, route po; conditions: in vivo
[19] = AUC (0 to infinity) in CB.17 SCID mouse xenografted with human TMD8 cells at 25 mg/kg, po measured upto 24 hrs by LC-MS/MS analysis; type: ADME, organism-based; design: time < 24 hrs, dose 25 mg/kg, route po; conditions: in vivo
[20] = MRT (0 to t) in CB.17 SCID mouse xenografted with human TMD8 cells at 50 mg/kg, po measured upto 24 hrs by LC-MS/MS analysis; type: ADME, organism-based; conditions: in vivo
[21] = MRT (0 to t) in CB.17 SCID mouse xenografted with human TMD8 cells at 100 mg/kg, po measured upto 24 hrs by LC-MS/MS analysis; type: ADME, organism-based; conditions: in vivo
[22] = MRT(0 to infinity) in CB.17 SCID mouse xenografted with human TMD8 cells at 25 mg/kg, po measured upto 24 hrs by LC-MS/MS analysis; type: ADME, organism-based; conditions: in vivo
TMD8 [23] = assay: Induction of apoptosis in human TMD8 cells assessed as viable cells at 0.5 uM incubated for 24 hrs by Annexin V-FITC/PI staining based flow cytometric analysis (reference value: 96.4%); type: functional; conditions: read-out: Activity
TMD8 [24] = assay: Induction of apoptosis in human TMD8 cells assessed as early apoptotic cells at 0.5 uM incubated for 24 hrs by Annexin V-FITC/PI staining based flow cytometric analysis (reference value: 0.24%); type: functional
TMD8 [25] = assay: Induction of apoptosis in human TMD8 cells assessed as viable cells at 1 uM incubated for 24 hrs by Annexin V-FITC/PI staining based flow cytometric analysis (reference value: 96.4%); type: functional; conditions: read-out: Activity
TMD8 [26] = assay: Induction of apoptosis in human TMD8 cells assessed as late apoptotic cells at 1 uM incubated for 24 hrs by Annexin V-FITC/PI staining based flow cytometric analysis (reference value: 1.54%); type: functional
TMD8 [27] = assay: Induction of apoptosis in human TMD8 cells assessed as early apoptotic cells at 2 uM incubated for 24 hrs by Annexin V-FITC/PI staining based flow cytometric analysis (reference value: 0.24%); type: functional
TMD8 [28] = assay: Induction of apoptosis in human TMD8 cells assessed as viable cells at 4 uM incubated for 24 hrs by Annexin V-FITC/PI staining based flow cytometric analysis (reference value: 96.4%); type: functional; conditions: read-out: Activity

Sequence of Histone deacetylase 8 (Q9BY41 whole entry): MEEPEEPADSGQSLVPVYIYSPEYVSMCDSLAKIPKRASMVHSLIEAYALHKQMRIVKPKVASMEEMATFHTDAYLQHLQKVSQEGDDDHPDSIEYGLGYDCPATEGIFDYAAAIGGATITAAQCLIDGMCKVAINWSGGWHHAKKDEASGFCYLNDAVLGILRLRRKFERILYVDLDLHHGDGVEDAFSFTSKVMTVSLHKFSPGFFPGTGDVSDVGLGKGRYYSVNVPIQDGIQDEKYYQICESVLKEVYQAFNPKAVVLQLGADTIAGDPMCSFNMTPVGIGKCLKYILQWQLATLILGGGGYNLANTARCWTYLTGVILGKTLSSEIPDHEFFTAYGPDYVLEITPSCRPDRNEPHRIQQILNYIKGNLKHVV
Sequence of Histone deacetylase 2 (Q92769 whole entry): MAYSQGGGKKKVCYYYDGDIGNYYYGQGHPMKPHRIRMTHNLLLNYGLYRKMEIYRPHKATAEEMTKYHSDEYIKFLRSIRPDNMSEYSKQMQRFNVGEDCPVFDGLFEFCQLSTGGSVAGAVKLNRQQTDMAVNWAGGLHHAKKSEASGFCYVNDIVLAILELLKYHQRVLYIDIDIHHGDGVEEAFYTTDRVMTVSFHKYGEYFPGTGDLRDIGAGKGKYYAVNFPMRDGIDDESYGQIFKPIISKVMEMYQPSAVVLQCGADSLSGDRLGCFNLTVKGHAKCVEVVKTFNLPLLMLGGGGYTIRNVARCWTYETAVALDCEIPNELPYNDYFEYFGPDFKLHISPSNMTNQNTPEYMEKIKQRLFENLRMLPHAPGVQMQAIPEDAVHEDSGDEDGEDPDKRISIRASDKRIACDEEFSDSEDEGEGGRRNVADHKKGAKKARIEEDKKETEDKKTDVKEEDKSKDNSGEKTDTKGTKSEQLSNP
Sequence of Histone deacetylase 1 (Q13547 whole entry): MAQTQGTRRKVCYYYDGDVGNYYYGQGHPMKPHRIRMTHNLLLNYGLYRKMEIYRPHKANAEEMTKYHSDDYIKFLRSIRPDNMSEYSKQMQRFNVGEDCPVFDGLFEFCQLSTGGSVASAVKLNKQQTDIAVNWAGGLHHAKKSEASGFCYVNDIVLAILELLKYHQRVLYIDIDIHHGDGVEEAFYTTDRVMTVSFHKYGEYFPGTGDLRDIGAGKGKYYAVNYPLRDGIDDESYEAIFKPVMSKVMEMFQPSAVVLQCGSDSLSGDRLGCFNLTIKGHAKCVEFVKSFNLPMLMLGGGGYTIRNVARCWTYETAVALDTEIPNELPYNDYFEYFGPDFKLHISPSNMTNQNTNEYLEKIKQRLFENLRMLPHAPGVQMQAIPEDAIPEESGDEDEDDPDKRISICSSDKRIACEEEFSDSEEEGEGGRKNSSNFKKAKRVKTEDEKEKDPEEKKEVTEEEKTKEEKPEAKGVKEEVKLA

IC50 (Histone deacetylase 1): 84.9 nM | microsomal CLint [1]: 1.32 µL/min/mg | AUC(0-t) at 24 h [2]: 9710 ng·h/mL | microsomal CLint [3]: 1.7 µL/min/mg | IC50 (MDA-MB-231 [4]): 2290 nM | IC50 (A549): 2850 nM | IC50 (SK-OV-3): 3170 nM | IC50 (HT-29): 2410 nM | IC50 (COLO-678): 8020 nM | IC50 (SU-DHL-2): 510 nM | half-life [7]: 1.63 h | microsomal CLint [8]: 14.1 µL/min/mg | microsomal CLint [9]: 13.2 µL/min/mg | IC50 (Histone deacetylase 2): 168 nM | IC50 (Histone deacetylase 8): > 10000 nM | half-life [10]: 4.4 h | AUC(0-inf) [11]: 1040 ng·h/mL | AUC(0-inf) [12]: 5180 ng·h/mL | MRT [13]: 2.6 h | bioavailability [14]: 39.9% | Cmax [15]: 1700 ng/mL | Cmax [16]: 14700 ng/mL | Cmax [17]: 10700 ng/mL | AUC(0-t) at 24 h [18]: 9740 ng·h/mL | AUC(0-inf) [19]: 1230 ng·h/mL | MRT last at 24 h [20]: 0.812 h | MRT last at 24 h [21]: 1.43 h | MRT inf [22]: 0.805 h
Structure (SMILES): Nc1ccccc1NC(=O)c1ccc(CN2CCC/C(=C\c3ccccn3)C2=O)cc1
Activity (TMD8 [5]): 2.32% | Activity (MDA-MB-231 [6]): 64.94% | IC50 (DOHH-2): 390 nM | IC50 (Rec1): 330 nM | viability at 0.5 µM (TMD8 [23]): 95.8% | Activity (TMD8 [24]): 0.34% | viability at 1 µM (TMD8 [25]): 92.2% | Activity (TMD8 [26]): 3.13% | Activity (TMD8 [27]): 10.3% | viability at 4 µM (TMD8 [28]): 57.4%
